# Legend:
# [1] = target: T1, human PPARα receptor (Homo sapiens, UniProt Q07869); assay: Luciferase reporter assay of PPARα agonist activity (Gal4-PPARα chimera receptor in CV-1 cells); type: cell-based; conditions: luciferase activity with 10 μM Wy-14,643 taken as 100, read-out: PPARα agonist activity, relative activity; for Emax at 0.1 µM: CV-1, 0.1 μM compound; for Emax at 1 µM: CV-1, 1 μM compound; for Emax at 10 µM: CV-1, 10 μM compound
# T1 construct: expressed in transfected cells; host or cells: CV-1 cells (pSG5-based expression vector)
# T1 sequence (Q07869 167-468): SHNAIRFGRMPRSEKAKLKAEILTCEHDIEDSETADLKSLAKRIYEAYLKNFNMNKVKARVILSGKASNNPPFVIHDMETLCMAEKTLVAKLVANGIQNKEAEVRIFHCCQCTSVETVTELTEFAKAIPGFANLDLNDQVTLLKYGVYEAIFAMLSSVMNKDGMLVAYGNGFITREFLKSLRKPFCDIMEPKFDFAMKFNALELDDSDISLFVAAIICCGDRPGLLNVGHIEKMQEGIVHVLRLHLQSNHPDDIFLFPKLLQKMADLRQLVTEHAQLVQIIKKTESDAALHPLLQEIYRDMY
# Protocol: (§1) Measurement of PPARα Agonist Activity and PPARγ Agonist Activity
# (§2) 1. Materials for Assay of Luciferase Using Human PPARα and PPARγ Receptors
# (§3) The entire procedure was carried out according to the fundamental methods of genetic engineering and the ordinary method in the yeast one-hybrid or two-hybrid system was applied.
# (§4) PGL2-UAS5-TK-luc was prepared as a reporter plasmid carrying a response sequence of Gal4 protein as a basic transcription factor of yeast, an enhancer sequence with five repeat part of UAS, a luciferase gene (luc) under the control of timidine kinase (TK) promoter. Specifically, a DNA fragment encoding a TK promoter (−105/+51) on the downstream side of an enhancer sequence comprising two time repeat of UAS was amplified by PCR using pRL-TK carrying a TK promoter (Promega, Trade name: Catalogue No. E2241) as the template and the primers: […]
# (§5) After the fragment was cleaved with XhoI-Hind III, pGL2-UAS2-TK-luc was obtained by inserting the resultant fragment into the XhoI-Hind III site located on the upstream side of a luciferase structural gene on pGL2-Basic vector (Promega, Trade name: Catalogue No. E1641).
# (§6) After cleavage of a synthetic DNA as an enhancer sequence comprising three time repeat of Gal4 response sequence (SEQ ID NO: 3): 5′-ATTGGTAC([…])×3 AGATCTCGAC) using KpnI and BgIII was carried out, pGL2-UAS5-TK-luc was prepared by inserting the resulting fragment into the KpnI-BgIIIb site of pGL2-UAS2-TK-luc.
# (§7) A vector for expression of a chimera receptor protein, in which a ligand binding region of an internuclear receptor human PPARα or PPARγ receptor was fused with the carboxyl terminal of a DNA binding region of yeast Ga14 protein, was prepared as follows:
# (§8) The structural gene of pSG5 (STRATAGENE, Trade Name: Catalogue No. 216201) as the basic expression vector was changed for the chimera receptor except that the promoter-enhancer region was maintained as it was.
# (§9) The DNA encoding the ligand binding region of the human PPARα or PPARγ receptor was fused on the downstream side of the DNA encoding the DNA binding region and the amino acid sequence from 1 to 147 positions of Ga14 protein so that their reading frames were fitted and the resulting fused DNA was inserted into pSG5 (trade name) on the down stream side of the promoter-enhancer region. In this step, the DNA sequence was arranged so that a signal for transfer into the nucleus (Ala Pro Lys Lys Lys Arg Lys Val Gly (SEQ ID: No: 4) derived from SV-40T antigen was located on the amino terminal of the ligand binding region of PPARα or PPARγ receptor in order to localize the chimera receptor in the nucleus.
# (§10) Based on comparison of the human PPAR receptors described in R. Mukherjee et al., [see J. Steroid Biochem. Molec. Biol., Vol. 51, p157 (1994)] and M. E. Green et al., [see Gene Expression, Vol. 4, p281 (1995))], as the structural gene part used for the ligand binding region PPARα or PPARγ, the human PPARα ligand binding region: Ser167-Tyr468; and the PPARγ ligand binding region: Ser176-Tyr478 were used, which had the same sequences corresponding to Ser204-Tyr506 for human PPARγ1 receptor and human PPARγ2, respectively.
# (§11) In order to monitor influence against the basic transcription, an expression vector was prepared which carried a DNA encoding only the DNA binding region and the amino acid sequence from 1 to 147 position of Ga14 protein defective in its PPAR ligand binding region and a signal for transfer into the nucleus of SV-40T-antigen.
# (§12) 2. Assay of Luciferase Using Human PPARα or PPARγ Receptor
# (§13) CV-1 cells used as a host cell were cultivated according to an ordinary method. Specifically, a fetal bovine serum (Intergent, Catalogue No. 1020-90) was added to a Dulbecco's modified Eagle's medium (DMEM) so that the final concentration became 10%. Further, penicillin G (50 U/ml) and streptomycin sulfate (50 μg/ml) were added. Cultivation was conducted in the resulting medium in a 5% carbon dioxide gas at 37° C. […]
# [2] = target: T2, human PPARγ receptor (Homo sapiens, UniProt P37231); assay: Luciferase reporter assay of PPARγ agonist activity (Gal4-PPARγ chimera receptor in CV-1 cells); type: cell-based; conditions: luciferase activity with 1 μM Pioglitazone taken as 100, read-out: PPAR γ agonist activity, relative activity; for Emax at 0.1 µM: CV-1, 0.1 μM compound; for Emax at 1 µM: CV-1, 1 μM compound; for Emax at 10 µM: CV-1, 10 μM compound
# T2 construct: corresponding to Ser204-Tyr506 for human PPARγ1 receptor and human PPARγ2; expressed in transfected cells; host or cells: CV-1 cells (pSG5-based expression vector)
# T2 sequence (P37231 204-505 limits assumed): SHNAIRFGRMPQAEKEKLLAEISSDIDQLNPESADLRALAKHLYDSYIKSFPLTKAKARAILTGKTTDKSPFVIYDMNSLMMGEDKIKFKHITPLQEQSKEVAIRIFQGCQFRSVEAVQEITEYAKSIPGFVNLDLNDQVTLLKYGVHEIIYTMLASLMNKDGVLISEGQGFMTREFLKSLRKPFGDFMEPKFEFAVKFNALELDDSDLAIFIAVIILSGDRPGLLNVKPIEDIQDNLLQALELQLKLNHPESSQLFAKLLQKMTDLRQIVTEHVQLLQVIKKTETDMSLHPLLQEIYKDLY
# Protocol: as §1, §2, §3, §4, §5, §6, §7, §8, §9, §10, §11, §12, §13
# [3] = system: TNFα transcription (human TNF transcription-controlling region); assay: Inhibition of TNFα production: luciferase under human TNF transcription-controlling region in 3T3-L1 cell strain No. 46; type: cell-based; conditions: 10 μM compound; luciferase activity with DMSO taken as 100 (no hTNF: 40%); 24 hours
# From the text: Test for in-vitro Evaluation of the Action of Inhibiting the Production of Tumor Necrosis Factor α (TNFα) Using Lipocytes (Derived from 3T3-L1)
# A luciferase gene was bonded to the downstream side of human TNF transcription-controlling region. The resulting material was stably inserted into the chromosomes of 3T3-L1 cells. The thus-obtained cell strain No. 46 was used for evaluation.
# The cell strain No. 46 was cultivated according to an ordinary method. Specifically, a bovine serum (Cell Culture Technology, Catalogue No. CC017-502) was added to a Dulbecco's modified Eagle's medium (DMEM) so that the final concentration became 10%. Further, 50 U/ml of penicillin G, 50 ug/ml of streptomycin sulfate and 0.4 mg/ml of G418 were added. In the resulting medium was conducted cultivation in a 5% carbon dioxide gas at 37° C.
# The cell strain No. 46 was planted into a PLL (poly L-lysine)-coated 48-well plate. When the cell strain reached confluence and then at least two days passed, the medium was substituted with the above medium containing 9 ng/m of hTNF (Genzyme) and an activity for TNFα transcription was induced. hTNF was added and, simultaneously therewith, a compound of the present invention was added so that the final concentration became 10 μM. 24 hours later, the cells were observed by a microscope. Then, the cells were fused and the luciferase activity was measured according to an ordinary method.
# Regarding the activity for TNFα transcription, the luciferase activity when DMSO was added in place of the compound, was taken as 100; and the relative activity when 10 uM of the present compound was added, was shown in Table 1. Incidentally, the relative luciferase activity when no hTNF was added, was 40%.
# [4] = system: KK-Ay/Ta Jci type 2 diabetes mice; assay: In-vivo blood sugar and lipid reduction in diabetes model mice (KKAy mice); parameters: species or system mouse; conditions: 30 mg/kg orally one time per day for 4 days, 5th day vs 1st day
# Protocol: Test for in-vivo Evaluation of the Activities for Blood Sugar Reduction and Lipid Reduction Using Diabetes Model Mice (KKAy Mice)
# Type 2 diabetes mice “KK-Ay/Ta Jci” (male, Clea Japan, Inc., 10-week old) put in cages were used (each cage contained 5 mice). In the morning of the 1st day of test start, a blood was collected from the orbital vein of each mouse. The blood sugar value in the blood was measured by subjecting the blood to deproteinization using perchloric acid, subjecting the resulting material to centrifugation, and subjecting the resulting supernatant liquid to a new blood sugar test (Boehringer Mannheim). Further, the blood was subjected to centrifugation to obtain a plasma and the triglyceride concentration and free fatty acid concentration in the plasma were measured using Triglyceride E-Test Wako and NEFA-C Test Wako (Wako Pure Chemical Industries, Ltd.), respectively. Grouping was made so that the blood sugar values in individual groups became the same. Then, an Example 2 compound (exemplary compound No. 61) was suspended in a 0.5% aqueous CMC solution and administered orally one time per day for 4 days. In the 5th day of test, blood collection was made to measure blood sugar value, triglyceride concentration and free fatty acid concentration. Incidentally, a group to which only the 0.5% aqueous CMC solution was administered, was used as a control group; and Pioglitazone was used in a positive control group. The reduction in parameter in each group was calculated using the following formula.
# Reduction (%)={1−(parameter of 5th day in each group)/(parameter of 1st day in each group)}×100
structure (smiles),measurement,setting,value
"CCCCNC(=O)C(Cc1ccc(OCc2cnc3ccc(OC)cc3c2OC(C)C)cc1)OCC (centres unmarked) [Example 4 (104), 2-ethoxy-3-{[4-(4-isopropoxy-6-methoxyquinoline-3-yl)methyloxy]phenyl}propanoic acid N-butylamide]",Emax at 0.1 µM,[1],0.3%
same,Emax at 1 µM,[1],0.3%
same,Emax at 10 µM,[1],0.3%
same,Emax at 0.1 µM,[2],0.4%
same,Emax at 1 µM,[2],1.1%
same,Emax at 10 µM,[2],14.9%
same,"Activity for TNFα transcription, relative activity",[3],64.0
"CCOC(Cc1ccc(OCc2cnc3ccc(OC)cc3c2OC(C)C)cc1)C(N)=O (centres unmarked) [Example 3 (102), 2-ethoxy-3-{[4-(4-isopropoxy-6-methoxyquinoline-3-yl)methyloxy]phenyl}propanoic acid amide]",Emax at 0.1 µM,[1],0.4%
same,Emax at 1 µM,[1],0.9%
same,Emax at 10 µM,[1],8.5%
same,Emax at 0.1 µM,[2],74.1%
same,Emax at 1 µM,[2],114%
same,Emax at 10 µM,[2],108%
same,"Activity for TNFα transcription, relative activity",[3],71.7
"CNC(=O)C(Cc1ccc(OCc2cnc3ccc(OC)cc3c2OC(C)C)cc1)C(C)=O (centres unmarked) [Example 24 (141), 2-{[4-(4-isopropoxy-6-methoxyquinoline-3-yl)methyloxy]phenylmethyl}-3-oxobutanoic acid N-methylamide]",Emax at 0.1 µM,[2],0.8%
same,Emax at 1 µM,[2],1.2%
same,Emax at 10 µM,[2],9.4%
same,"Activity for TNFα transcription, relative activity",[3],71.6
"CCOC(Cc1ccc(OCc2cnc3ccc(OC)cc3c2OC(C)C)cc1)C(=O)O (centres unmarked) [Example 2 (61), 2-ethoxy-3-{[4-(4-isopropoxy-6-methoxyquinoline-3-yl)methyloxy]phenyl}propanoic acid]",Reduction in blood sugar (%),[4],50%
same,Reduction in free fatty acid (%),[4]; plasma,46%
same,Reduction in triglyceride (%),[4]; plasma,57%
same,Emax at 1 µM,[1],10.4%
same,Emax at 10 µM,[1],24.6%
same,Emax at 0.1 µM,[2],85%
same,Emax at 1 µM,[2],114%
"COc1ccc2ncc(COc3ccc(C=C(C(C)=O)C(C)=O)cc3)c(OC(C)C)c2c1 [Example 26 (147), 3-{[4-(4-isopropoxy-6-methoxyquinoline-3-yl)methyloxy]phenylmethylene}-2,4-dioxopentane]",Emax at 0.1 µM,[2],0.1%
same,Emax at 1 µM,[2],3.7%
same,Emax at 10 µM,[2],12.8%
same,"Activity for TNFα transcription, relative activity",[3],59.0

# From patent US20030212100A1, “Quinoline derivatives and medicinal use thereof” (priority 2000, published 2003)
